Patent US11932870B2, “Compositions and methods for immune cell modulation in adoptive immunotherapies” (Fate Therapeutics, Inc., priority 2016, dated 2024)
“Also recorded” adds a separate entry of the source.

Assays:
viable CD8+ population = assay: T cell compound screen: CCR7+CD62L+ cells in the viable CD8+ population (flow cytometry); type: cell-based, human; settings: 10 μM, about 6 days, anti-CD3/anti-CD28 beads; hit = Z-score > +2 for percent or absolute number CCR7+CD62L+ in CD8+
Text: In Vitro T Cell Culture. Fresh leukopaks (AllCells, Alameda, CA) were obtained from healthy donors, from which T cells were negatively selected using the EasySep Human T cell Enrichment Kit (Stem Cell Technologies, Vancouver, Canada). The freshly isolated T cells were aliquoted and cryopreserved. On the day the screens were initiated, T cells were thawed and washed into X-Vivo 15 with 5% human AB serum, IL-2, pen/strep, and additional supplements. Cells were dispensed into flat-bottom 384-well plates at 5×10^5 cells/ml with anti-CD3/anti-CD28 beads. Individual compounds were added at a final concentration of 10 μM to each well from column 3 to column 22 of each plate. Positive and negative controls were added to additional wells. Cells were incubated for about 6 days at 37 degrees with 5% CO2.
Flow Cytometry. On Day 6 of culture, cells were stained with a fixable viability marker and fluorophore-conjugated antibodies: CD3, CD4, CD8, CD45RA, CD45RO, CD62L, CCR7, CD27, and CD122 (BD Biosciences, San Jose, CA; and BioLegend, San Diego, CA). Fluorescent absolute counting beads (Spherotech, Lake Forest, IL) were added just prior to acquisition. Data acquisition was performed on a BD Fortessa X-20 (BD Biosciences) and data were analyzed using Treestar software (FlowJo, Ashland, OR) and Spotfire (Tibco, Boston, MA).
These cells are characterized by expression of CCR7 and CD62L. Therefore, cells co-expressing both of these identifying markers were evaluated. Within the viable CD4+ population and viable CD8+ population, the percent of cells co-expressing CCR7 and CD62L was determined. The expression of either CD62L or CCR7 on T cells, as indicative of the desired T cell subsets, have been described as having favorable functional characteristics for CAR-T cell therapy, and potentially other adoptive T cell therapies.
The number of events in each of these gates relative to the number of absolute counting beads in each sample was calculated, defining a measure of the absolute number of naïve, stem cell memory, or central memory T cells within the CD4+ and/or CD8+ populations. A z-Score relative to the screened compound samples within each 384-well plate was calculated for each of these four values: 1) percent CCR7+CD62L+in CD4+, 2) percent CCR7+CD62L+in CD8+, 3) absolute relative number of CCR7+CD62L+in CD4+, and 4) absolute number of CCR7+CD62L+in CD8+(FIGS. 1A and 1i). Z-scores were also calculated for the percent viability of all cells within each sample and the relative absolute number of cells within each sample. A “Z-Score” is a statistical measurement of a score's relationship to the mean in a group of scores. AZ-score of 0 means the score is the same as the mean. AZ-score can also be positive or negative, indicating whether it is above or below the mean and by how many standard deviations.

[1] = tested on: CD8 T cells transduced with the CAR-2 construct; assay: Larger-scale (24-well GREX) CAR-T culture: viability and expansion; type: cell-based, human; settings: expanded with compound or vehicle for 6 days
Text: The cells were transduced with the CAR-2 construct (FIG. 2) one day after activation and then replated into 24-well GREX plates with or without compounds. Half the media was replaced every two days thereafter until harvest one week post activation. Cells were activated and expanded in the presence of compound or vehicle for 6 days.

Nalm-6-luc tumor cells = assay: In vivo tumor clearance by compound-treated CD19 CAR-T cells; settings: NSG mice with Nalm-6-luc; 2.0×10^5 cryopreserved compound-treated CAR-T cells per animal (1:1 CD4:CD8); imaging; FIGS. 7 and 8
Protocol: NSG mice were injected with Nalm-6-luc, a CD19+ human tumor line engineered to express firefly luciferase. CAR-T cells were generated from CD4+ and CD8+ T cells that were separately activated and expanded in vitro. The cells were transduced with the CAR-2 construct (FIG. 2) one day after activation and then replated into 24-well GREX plates with or without the compounds. Half the media was replaced every two days thereafter until harvest one week post-activation. Cells were cryopreserved and then thawed for use. NSG mice were infused with tumor cells followed […] by CAR-T transfer via retroorbital injection. Four days after IV. injection with Nalm-6-luc cells, mice were treated with 2.0×10^5 CAR-T cells per animal (1:1 CD4:CD8). The mice were imaged periodically to determine tumor burden.

CD8+ T cells = assay: RNA-Seq gene expression of memory T cell genes; type: cell-based, human; settings: DCC-2036 1 μM, TWS-119 10 μM, roughly 6 days, 5 donors, relative to vehicle, FIG. 5
Text: To characterize the impact of DCC-2036 in memory cell skewing, gene expression changes for a panel of key genes, (i.e. CCR7, CD62L, etc.) previously known to be highly expressed in memory T cells were investigated. Cryopreserved CD8+ T cells from 5 different donors were thawed and washed into X-Vivo 15 with 5% human AB serum, IL-2, pen/strep, and additional supplements. Cells were dispensed into flat-bottom 384-well plates at 5×10^5 cells/ml with anti-CD3/anti-CD28 beads. Cells were either treated with DCC-2036 at a final concentration of 1 μM, TWS-119 at 10 μM, or received a vehicle (DMSO) only control treatment. Cells were incubated for roughly 6 days at 37 degrees Celsius with 5% CO2.
Post incubation, cells were lysed and RNA was isolated, fragmented and cDNA was generated in the presence of the appropriate sequencing adapters and sequencing was performed using Illumina next generation sequencing technology (NGS). RNA-Sequencing (RNA-Seq) utilizes the capabilities of NGS to not only acquire nucleotide sequence information, but also provide quantitative gene expression measurements from a given samples transcriptome. Gene transcripts were normalized to counts per million (CPM) reads per samples and relative quantitation of each gene transcript was determined for each in treatment relative to the matching vehicle control treated samples. […]

## CNC(=O)c1cc(Oc2ccc(NC(=O)Nc3cc(C(C)(C)C)nn3-c3ccc4ncccc4c3)c(F)c2)ccn1 [DCC-2036, Rebastinib]
Viable CD8+ population
  CD8 Hit: CD8
[1]; FIG. 3A
  CAR-T cell viability: improved; also recorded: maintaining viability
[1]; FIG. 3B
  CAR-T cell expansion: improved; also recorded: enhancing expansion
Nalm-6-luc tumor cells
  tumor burden / tumor control: dramatically reduced tumor burden; also recorded: able to clear tumor from the majority of mice
CD8+ T cells
  expression of key memory T cell genes (CCR7, CD62L etc.): increases in expression at levels similar to or greater than TWS-119
CD8+ T cells; listed as DCC-2036 (FT-61314)
  expression of key memory T cell genes (CCR7, CD62L etc.): increased expression
